Test results as given in patent US20260042764A1, “COMPOSITIONS AND METHODS FOR INHIBITION OF KRAS” (TheRas, Inc., priority 2022, published 2026).

Key:
[1] = tested on: SW620 cells (KRAS G12V); test: Cell-based pERK HTRF assay in SW620 cell (Biological Example 4); conditions: Homo sapiens, SW-620, SW620 (KRAS G12V) cells, pERK HTRF
In short: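 SW620 seeded in RPMI/10% FBS, next day dosed 4 h (top 1 μM, half-log, 9 pts, 0.25% DMSO). Lysed, pERK by d2/Eu cryptate HTRF, 4–24 h RT, 615 nm read.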

[2] = biological target: T1, Avi-KRAS G12V (1-169) GppNHp/RAF1 RBD-3xFLAG (52-151) (Homo sapiens, UniProt P01116, G12V); test: Raf1-KRAS G12V-GppNHP disruption HTRF assay (Biological Example 1); assay type: binding
T1 construct: Avi-KRAS G12V (1-169)
In short: (§1)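 Read-out is HTRF signal of the KRAS–RAF1 RBD complex, reported as percentage of activity relative to DMSO (100%). Protein mix and detection reagents each incubated 1 h at room temperature with 700 rpm shaking. Buffer: 50 mM Tris pH 7.5, 100 mM NaCl, 5 mM MgCl2, 0.1% BSA, 0.01% Tween, 10% DMSO.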

[3] = biological target: T2, Avi-KRAS WT (1-169) GppNHp/RAF1 RBD-3xFLAG (52-151) (Homo sapiens, UniProt P01116); test: Raf1-KRAS WT-GppNHP disruption HTRF assay (Biological Example 1); assay type: binding
T2 construct: Avi-KRAS WT (1-169)
In short: as §1

[4] = biological target: T3, Avi-KRAS G12R (1-169) GppNHp/RAF1 RBD-3xFLAG (52-151) (Homo sapiens, UniProt P01116, G12R); test: Raf1-KRAS G12R-GppNHP disruption HTRF assay (Biological Example 1); assay type: binding
T3 construct: Avi-KRAS G12R (1-169)
In short: as §1

[5] = tested on: GP2d cells (KRAS G12D); test: Cell-based pERK HTRF assay in GP2d cell (Biological Example 2); conditions: GP2d, GP2d (KRAS G12D) cells, pERK HTRF
In short: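 60 min compound, 0.25% DMSO, 9-pt half-log curve from 1 μM or 100 nM; DMEM/10% FBS.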

[6] = biological target: T4, Avi-KRAS G12D (1-169) GppNHp/RAF1 RBD-3xFLAG (52-151) (Homo sapiens, UniProt P01116, G12D); test: Raf1-KRAS G12D-GppNHP disruption HTRF assay (Biological Example 1); assay type: binding
T4 construct: Avi-KRAS G12D (1-169)
In short: as §1

[7] = KRAS G12V, GppNHp-loaded, class symbols
[8] = KRAS WT, GppNHp-loaded, class symbols
[9] = KRAS G12R, GppNHp-loaded, class symbols
[10] = KRAS G12D, GppNHp-loaded, class symbols
[11] = KRAS G12V, GppNHp-loaded, Table 11
[12] = KRAS WT, GppNHp-loaded, Table 11
[13] = KRAS G12R, GppNHp-loaded, Table 11
[14] = KRAS G12D, GppNHp-loaded, Table 11

T3 sequence (P01116 1-169 isoform P01116-2 G12R): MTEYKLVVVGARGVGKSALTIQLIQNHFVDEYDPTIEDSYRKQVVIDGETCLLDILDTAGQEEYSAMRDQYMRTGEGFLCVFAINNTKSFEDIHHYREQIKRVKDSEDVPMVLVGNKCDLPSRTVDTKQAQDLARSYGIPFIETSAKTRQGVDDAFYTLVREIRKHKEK
T2 sequence (P01116 1-169 isoform P01116-2): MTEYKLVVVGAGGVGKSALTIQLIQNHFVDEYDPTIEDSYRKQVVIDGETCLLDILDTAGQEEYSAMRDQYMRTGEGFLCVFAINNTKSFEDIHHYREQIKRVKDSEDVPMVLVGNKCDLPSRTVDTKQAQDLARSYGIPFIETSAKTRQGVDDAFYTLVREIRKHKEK
T1 sequence (P01116 1-169 isoform P01116-2 G12V): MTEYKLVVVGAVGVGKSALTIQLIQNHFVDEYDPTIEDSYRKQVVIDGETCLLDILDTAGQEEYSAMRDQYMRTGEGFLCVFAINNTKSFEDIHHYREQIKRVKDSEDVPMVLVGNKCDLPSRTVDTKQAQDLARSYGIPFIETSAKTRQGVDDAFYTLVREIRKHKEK
T4 sequence (P01116 1-169 isoform P01116-2 G12D): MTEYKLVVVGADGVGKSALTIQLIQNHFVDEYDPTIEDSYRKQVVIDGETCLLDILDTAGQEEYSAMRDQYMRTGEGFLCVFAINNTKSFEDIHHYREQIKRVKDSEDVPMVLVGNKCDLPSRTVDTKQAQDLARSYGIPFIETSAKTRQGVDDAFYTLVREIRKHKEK

Row | Compound | IC50 [1] [nM] | IC50 ([2]; KRAS G12V-GppNHp/RAF1 RBD HTRF) [nM] | IC50 ([3]; KRAS WT-GppNHp/RAF1 RBD HTRF) [nM] | IC50 ([4]; KRAS G12R-GppNHp/RAF1 RBD HTRF) [nM] | IC50 [5] [nM] | IC50 ([6]; KRAS G12D-GppNHp/RAF1 RBD HTRF) [nM] | IC50 ([1]; class symbols) [nM] | IC50 [2, 7] [nM] | IC50 [3, 8] [nM] | IC50 [4, 9] [nM] | IC50 ([5]; class symbols) [nM] | IC50 [6, 10] [nM] | IC50 [2, 11] [nM] | IC50 [3, 12] [nM] | IC50 [4, 13] [nM] | IC50 [6, 14] [nM]
1 | N#Cc1c(N)sc2c(F)ccc(-c3c(C(F)(F)F)cc4c(N5CCO[C@H]6C[C@H]65)nc(OC[C@@]56CCCN5C[C@H](F)C6)nc4c3F)c12 [Compound 403] | < 100 | 100 to 1000 | 100 to 1000 | 100 to 1000 | < 100 | 100 to 1000 | – | – | – | – | – | – | – | – | – | –
2 | N#Cc1c(N)sc2c(F)ccc(-c3c(C(F)(F)F)cc4c(N(Cc5cccnc5N)C5CC5)nc(OC[C@@]56CCCN5C[C@H](F)C6)nc4c3F)c12 (atropisomer, axis not shown) [Compound 602] | – | – | – | – | – | – | < 100 | 1000 to 10000 | 1000 to 10000 | 1000 to 10000 | < 100 | 1000 to 10000 | – | – | – | –
3 | CCN(c1nc(OC[C@@]23CCCN2C[C@H](F)C3)nc2c(F)c(-c3ccc(F)c4sc(N)c(C#N)c34)c(C(F)(F)F)cc12)[C@H]1CCN(C(=O)c2cnco2)C1 (atropisomer, axis not shown) [Compound 708] | – | – | – | – | – | – | < 100 | < 100 | < 100 | < 100 | < 100 | < 100 | – | – | – | –
4 | N#Cc1c(N)sc2c(F)ccc(-c3c(C(F)(F)F)cc4c(N5CC6OCC5C6O)nc(OC[C@@]56CCCN5C[C@H](F)C6)nc4c3F)c12 (stereo partly drawn) [Compound 508] | < 100 | 100 to 1000 | 100 to 1000 | 100 to 1000 | < 100 | 100 to 1000 | – | – | – | – | – | – | – | – | – | –
5 | N#Cc1c(N)sc2c(F)ccc(-c3c(C(F)(F)F)cc4c(N5CC(F)(F)C5)nc(OC[C@@]56CCCN5C[C@H](F)C6)nc4c3F)c12 [Compound 205] | < 100 | – | – | – | < 100 | – | – | – | – | – | – | – | 100 to 1000 | 100 to 1000 | 100 to 1000 | 100 to 1000
6 | CCN(c1nc(OC[C@@]23CCCN2C[C@H](F)C3)nc2c(F)c(-c3ccc(F)c4sc(N)c(C#N)c34)c(C(F)(F)F)cc12)[C@H]1CCN(C(=O)C2CCC2)C1 (atropisomer, axis not shown) [Compound 551] | < 100 | < 100 | < 100 | < 100 | < 100 | < 100 | – | – | – | – | – | – | – | – | – | –
7 | CNC(=O)CN(C)c1nc(OC[C@@]23CCCN2C[C@H](F)C3)nc2c(F)c(-c3ccc(F)c4sc(N)c(C#N)c34)c(C(F)(F)F)cc12 [Compound 209] | 100 to 1000 | – | – | – | < 100 | – | – | – | – | – | – | – | 100 to 1000 | 100 to 1000 | 100 to 1000 | 100 to 1000
8 | N#Cc1c(N)sc2c(F)ccc(-c3c(C(F)(F)F)cc4c(N5CCN6C(=O)OCC6C5)nc(OCC56CCCN5CC(F)C6)nc4c3F)c12 (stereo not drawn) [Compound 428] | < 100 | 1000 to 10000 | 100 to 1000 | 1000 to 10000 | < 100 | 1000 to 10000 | – | – | – | – | – | – | – | – | – | –
9 | CC(=O)N1CC[C@H](N(C)c2nc(OC[C@@H]3CCCN3C)nc3c(F)c(-c4ccc(F)c5sc(N)c(C#N)c45)c(C(F)(F)F)cc23)[C@@H]1C [Compound 239] | > 1000 | – | – | – | > 1000 | – | – | – | – | – | – | – | > 10000 | > 10000 | > 10000 | > 10000
10 | CC(=O)N1CC[C@@](C)(N(C)c2nc(OC[C@@]34CCCN3C[C@H](F)C4)nc3c(F)c(-c4ccc(F)c5sc(N)c(C#N)c45)c(C(F)(F)F)cc23)[C@H]1C [Compound 342] | 100 to 1000 | 1000 to 10000 | 100 to 1000 | 1000 to 10000 | < 100 | 1000 to 10000 | – | – | – | – | – | – | – | – | – | –
11 | CN1CC(F)(F)C[C@H]1COc1nc(N2CC3CC(C2)O3)c2cc(C(F)(F)F)c(-c3ccc(F)c4sc(N)c(C#N)c34)c(F)c2n1 [Compound 498] | > 1000 | > 10000 | > 10000 | > 10000 | > 1000 | > 10000 | – | – | – | – | – | – | – | – | – | –

Second part, the compound after the results:

Row | IC50 [1] [nM] | IC50 ([2]; KRAS G12V-GppNHp/RAF1 RBD HTRF) [nM] | IC50 ([3]; KRAS WT-GppNHp/RAF1 RBD HTRF) [nM] | IC50 ([4]; KRAS G12R-GppNHp/RAF1 RBD HTRF) [nM] | IC50 [5] [nM] | IC50 ([6]; KRAS G12D-GppNHp/RAF1 RBD HTRF) [nM] | IC50 ([1]; class symbols) [nM] | IC50 [2, 7] [nM] | IC50 [3, 8] [nM] | IC50 [4, 9] [nM] | IC50 ([5]; class symbols) [nM] | IC50 [6, 10] [nM] | IC50 [2, 11] [nM] | IC50 [3, 12] [nM] | IC50 [4, 13] [nM] | IC50 [6, 14] [nM] | Compound
12 | – | – | – | – | – | – | < 100 | < 100 | < 100 | < 100 | < 100 | < 100 | – | – | – | – | CCN(c1nc(OC[C@@]23CCCN2C[C@H](F)C3)nc2c(F)c(-c3ccc(F)c4sc(N)c(C#N)c34)c(C(F)(F)F)cc12)[C@H]1CCN(C(=O)OC2CC(OC)C2)C1 (stereo partly drawn) [Compound 791]
13 | – | – | – | – | – | – | < 100 | 100 to 1000 | 100 to 1000 | 100 to 1000 | < 100 | 100 to 1000 | – | – | – | – | CCN(c1nc(OC[C@@]23CCCN2C[C@H](F)C3)nc2c(F)c(-c3ccc(F)c4sc(N)c(C#N)c34)c(C(F)(F)F)cc12)[C@H]1CCN(C(=O)[C@@H]2CC23CC3)C1 (atropisomer, axis not shown) [Compound 774]
14 | – | – | – | – | – | – | < 100 | < 100 | < 100 | < 100 | < 100 | < 100 | – | – | – | – | CCN(c1nc(OC[C@@]23CCCN2C[C@H](F)C3)nc2c(F)c(-c3ccc(F)c4sc(N)c(C#N)c34)c(C(F)(F)F)cc12)[C@H]1C[C@H](COC)N(C(=O)OC)C1 (atropisomer, axis not shown) [Compound 718]
15 | – | – | – | – | – | – | < 100 | 100 to 1000 | 100 to 1000 | 100 to 1000 | < 100 | < 100 | – | – | – | – | COC(=O)N1CC[C@H](N(c2nc(OC[C@@]34CCCN3C[C@H](F)C4)nc3c(F)c(-c4ccc(F)c5sc(N)c(C#N)c45)c(C(F)(F)F)cc23)C2CC2)C1 (atropisomer, axis not shown) [Compound 767]
16 | – | – | – | – | – | – | < 100 | < 100 | < 100 | < 100 | < 100 | < 100 | – | – | – | – | CCN(c1nc(OC[C@@]23CCCN2C[C@H](F)C3)nc2c(F)c(-c3ccc(F)c4sc(N)c(C#N)c34)c(C(F)(F)F)cc12)[C@H]1CCN(C(=O)[C@H]2CC23CC3)C1 (atropisomer, axis not shown) [Compound 772]
17 | – | – | – | – | – | – | < 100 | 100 to 1000 | < 100 | < 100 | < 100 | < 100 | – | – | – | – | CCN(c1nc(OC[C@@]23CCCN2C[C@H](F)C3)nc2c(F)c(-c3ccc(F)c4sc(N)c(C#N)c34)c(C(F)(F)F)cc12)[C@H]1CCN(C(=O)[C@@H](C)OC)[C@@H]1C (atropisomer, axis not shown) [Compound 806]
18 | – | – | – | – | – | – | < 100 | < 100 | < 100 | < 100 | < 100 | < 100 | – | – | – | – | CCN(c1nc(OC[C@@]23CCCN2C[C@H](F)C3)nc2c(F)c(-c3ccc(F)c4sc(N)c(C#N)c34)c(C(F)(F)F)cc12)[C@H]1CCN(C(=O)[C@H]2CCO2)[C@@H]1C (atropisomer, axis not shown) [Compound 805]
